From paper PMC5562523 (Cell chemical biology, 2017)
“Also recorded” adds a separate entry of the source.

Tests used:
Mtb [1] = assay: Protection from AC2P36 by ROS scavenging agents; format: cell-based, Mycobacterium tuberculosis; conditions: pH 5.7, dose response of scavenger, six days, OD
Mtb free thiol pools = assay: Free thiol pools in Mtb; format: cell-based; conditions: for free thiol pools relative to DMSO/untreated control: pH 7.0 and 5.7, 24 hours, 2 or 20 μM AC2P36, 20 μM auranofin, INH
S. aureus free thiols = assay: Free thiols in S. aureus; format: cell-based, Staphylococcus aureus strain Newman; conditions: 20 μM, pH 5.7
Mtb [2] = assay: Fractional killing and potentiation of antimicrobials; format: cell-based, Mycobacterium tuberculosis; conditions: pH 5.7, 3 days; for reduction in bacterial growth relative to the initial inoculum, compound alone: 10 μM AC2P36 alone or 10 μM INH alone
S. aureus = format: cell-based; conditions: 10 – 80 μM, pH 7.0 and 5.7, 6 hours
Mtb [3] = assay: Intracellular reactive oxygen species; format: cell-based, Mycobacterium tuberculosis
Staphylococcus aureus = format: cell-based; conditions: neutral and acidic pH
Mtb [4] = format: cell-based
Escherichia coli = format: cell-based; conditions: neutral and acidic pH
Mtb cytoplasmic pH = assay: Cytoplasmic pH measurement; format: cell-based; conditions: pH 5.7, over 24 hours
in vitro = format: cell-based; conditions: mouse
Mtb [5] = assay: Bactericidal activity of AC2P36; format: cell-based, Mycobacterium tuberculosis strain CDC1551
S. aureus (ΔsodAΔsodM) = format: cell-based; conditions: pH 7.0 and 5.7
Enterococcus faecalis = format: cell-based; conditions: neutral and acidic pH
Pseudomonas auruginosa = format: cell-based; conditions: neutral and acidic pH
Proteus vulgaris = format: cell-based; conditions: neutral and acidic pH
[6] = test system: Mtb reporter strain CDC1551::roGFP-R12; format: cell-based, Mycobacterium tuberculosis; conditions: pH 7.0 and 5.7, 0.1 – 20 μM, 6 h
Mtb [7] = assay: Menadione sensitivity assay; format: cell-based, Mycobacterium tuberculosis; conditions: pH 5.7, dose response of AC2P36 and menadione, six days, OD

CC(=O)N[C@@H](CS)C(=O)O [NAC, N-acetylcysteine]
protection of Mtb from 32 μM AC2P36 (Mtb [1]): protects Mtb from killing by 32 μM AC2P36 in a dose dependent manner

CC(=O)OC[C@H]1O[C@@H]([S-])[C@H](OC(C)=O)[C@@H](OC(C)=O)[C@@H]1OC(C)=O.CCP(CC)CC.[Au+] [auranofin, reference compound]
free thiol pools relative to DMSO/untreated control (Mtb free thiol pools): depleted free thiols relative to the DMSO treated control
reduction in free thiols in S. aureus (S. aureus free thiols): ~ 30%

NNC(=O)c1ccncc1 [INH, isoniazid, reference compound]
free thiol pools relative to DMSO/untreated control (Mtb free thiol pools): comparable thiol concentrations as the untreated cultures
reduction in bacterial growth relative to the initial inoculum, compound alone (Mtb [2]): approximately 2 fold

O[C@@H](CS)[C@@H](O)CS (racemic) [DTT, Dithiothreitol, reference compound]
ROS accumulation in S. aureus (S. aureus): had no effect on ROS accumulation

CC(C)/N=c1\cc2n(-c3ccc(Cl)cc3)c3ccccc3nc-2cc1Nc1ccc(Cl)cc1 [Clofazimine, clofazimine, reference compound]
effect on Mtb growth, compound alone (Mtb [2]; 100 μM clofazimine alone): did not impact Mtb growth

CN(C)C(=O)/N=N/C(=O)N(C)C [diamide, reference compound]
enhancement in bacterial growth relative to the initial inoculum, compound alone (Mtb [2]; 1 mM diamide alone): 1.8 fold
accumulation of intracellular ROS (Mtb [3]; 20 μM diamide, neutral pH): resists diamide treatment
accumulation of intracellular ROS (Mtb [3]; 20 μM diamide, pH 5.7): significant increase in ROS

COc1ccc(NC(=O)c2nc(S(C)(=O)=O)ncc2Cl)cc1Cl [AC2P36, 5-chloro-N-(3-chloro-4-methoxyphenyl)-2-methylsulfonylpyrimidine-4-carboxamide]
susceptibility of S. aureus to AC2P36 (Staphylococcus aureus): exhibit susceptibility to AC2P36
selectivity at acidic pH (pH 5.7 vs pH 7.0 EC50) (Mtb [4]): ~ 10 fold
concentrations at which Mtb growth is slowed/inhibited at neutral pH (Mtb [4]; pH 7.0): > 30 μM
depletion of free thiols vs DMSO treated samples (Mtb free thiol pools; 20 μM AC2P36, pH 5.7, 24 hours): ~ 16 fold
free thiol concentration after treatment (Mtb free thiol pools; 20 μM AC2P36, pH 5.7, 24 hours (DMSO ~1.3 μM)): ~ 80 nM
reduction of free thiols (Mtb free thiol pools; 20 μM AC2P36, pH 7.0, 24 hours): reduced by one third
free thiol pools relative to DMSO/untreated control (Mtb free thiol pools): significantly depleted thiol pools at both pH 7.0 and 5.7
synergy/potentiation in combination with rifampin (Mtb [2]; 10 μM AC2P36 + 0.3 μM rifampin): no significant synergy; also recorded: No potentiation was observed
reduction in bacterial growth relative to the initial inoculum, compound alone (Mtb [2]): approximately 2 fold
susceptibility of E. coli to AC2P36 (Escherichia coli): relatively unaffected
effect on Mtb cytoplasmic pH (Mtb cytoplasmic pH): does not modulate Mtb cytoplasmic pH
CC50 at 3 days (in vitro): 17 µM
reduction in free thiols in S. aureus (S. aureus free thiols): ~ 30%
reduction of viability relative to the DMSO treated control (Mtb [5]; 20 μM AC2P36, pH 5.7, by 7 days): ~ 100 fold
concentrations at which bactericidal activity is observed (Mtb [5]; pH 5.7, 6 days of treatment): > 10 µM
accumulation of intracellular ROS (Mtb [3]; 2 or 20 μM AC2P36, pH 7.0 and 5.7, 24 hours): dose-dependent and pH-dependent accumulation of reactive oxygen species; also recorded: significant induction of ROS
enhanced sensitivity of S. aureus (ΔsodAΔsodM) to AC2P36 compared to WT (S. aureus (ΔsodAΔsodM)): ~ 2 fold
susceptibility of E. faecalis to AC2P36 (Enterococcus faecalis): exhibit susceptibility to AC2P36
susceptibility of P. aeruginosa to AC2P36 (Pseudomonas auruginosa): relatively unaffected
susceptibility of P. vulgaris to AC2P36 (Proteus vulgaris): relatively unaffected
cytoplasmic redox status (roGFP) [6]: leads to a reduced cytoplasm in a dose-dependent and pH-independent manner; also recorded: promotes a reduced cytoplasm in a dose-dependent and pH-independent manner
ROS accumulation in S. aureus (S. aureus): enhanced ROS accumulation in a dose-dependent manner
synergy with menadione (Mtb [7]): did not synergize
